Data on eight compounds can be found in PubChem BioAssay (NCI).

Assay in all cases: growth of human tumour cells (NCI), 48 h
Test [1] has as its system CCRF-CEM leukemia.
For test [2], the system named is DU-145 prostate.
Test [3] deals with SF-268 CNS.
For test [4], the system named is SF-539 CNS.
The test system of test [5] is MALME-3M melanoma.
For test [6], the system named is MCF7 breast.
Test [7] relates to A549 NSCLC.
Test [8] has as its system HCT-116 colon.
Test [9] relates to COLO 205 colon.
The test system of test [10] is OVCAR-3 ovarian.
Test [11] deals with MDA-MB-435.
Test [12] deals with SW-620 colon.
Test [13] relates to LOX IMVI melanoma.
Test [14] relates to IGROV1 ovarian.
Test [15] deals with SF-295 CNS.
Test [16] deals with KM12 colon.
The subject of test [17] is A498 renal.
Test [18] has as its system SR leukemia.
Test [19] concerns NCI-H460 lung.

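Tested at 5 concentrations; 48 h exposure; 96-well plates; endpoints linearly interpolated, else capped at highest concentration. Definition used: TGI = concentration required for complete inhibition of growth.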

On to `c1ccc2c(c1)n1c(N3CCCC3)[n+]3ccccc3c1c1c3cccc[n+]3c(N3CCCC3)n21`, for which the TGI in test [1] was > 100 µM; in test [2], > 100 µM; in test [3], 45.2 µM; in test [4], > 100 µM; in test [5], > 100 µM; in test [6] it was > 100 µM. The TGI is > 100 µM in [7]; > 100 µM in test [8]; 74.9 µM in [9]; > 100 µM in [10]; > 100 µM in test [11]; > 100 µM in test [12]. In addition, the TGI in [13], in test [14], in test [15], in [16], in test [17] and in test [18] was > 100 µM each time. Moreover, the TGI in test [19] was > 100 µM.
As to `CSc1cc(Cl)c(C(=O)Nc2ccccc2)cc1S(=O)(=O)n1cc[nH]c1=O`, the TGI in test [1], in [2], in [3], in [4], in [5] and in test [6] was > 100 µM each time. Also, the TGI in test [7], in test [8], in [9], in test [10], in [11] and in [12] was > 100 µM throughout. The TGI in [13], in test [14], in [16], in test [17], in test [18] and in test [19] was > 100 µM each time.
For `CC1(C)C2CCC1(C)C(NC(=O)COCCOCC(N)=O)C2` (stereo not drawn), the TGI in [1], in test [2], in test [3], in [4], in test [5] and in [6] was > 100 µM throughout. In addition, the TGI in [7], in test [8], in test [9], in test [10], in [11] and in test [12] was > 100 µM each time. For the same compound, the TGI was > 100 µM in test [14]; > 100 µM in test [15]; > 100 µM in [16]; > 100 µM in test [17]; 85.1 µM in test [18]; > 100 µM in test [19].
For the compound `CC(C)(C)C1CC[C@H](O)[C@H]([C@@H](O)CC2CC(=O)N(c3ccccc3)C(=O)C2)C1` (stereo partly drawn), the TGI in test [1], in test [2], in test [3], in test [4], in test [5] and in [6] was > 100 µM throughout. In addition, the TGI in test [7], in test [8], in test [10], in test [11], in test [12] and in test [13] was > 100 µM each time. Also, the TGI in [14], in [15], in [16], in test [17], in test [18] and in test [19] was > 100 µM each time.
Take `CCOc1ccc(NC(=O)/C=C/c2ccco2)cc1`: the TGI in test [1], in test [2], in [3], in test [4], in test [5] and in test [6] was > 100 µM each time. Besides, the TGI was > 100 µM in test [7]; > 100 µM in test [8]; > 100 µM in test [9]; 22 µM in test [11]; > 100 µM in test [12]; > 100 µM in [13]. Besides, the TGI in [14], in [15], in test [16], in test [17], in test [18] and in [19] was > 100 µM each time.
Take `CCOC(=O)/C(=C\n1c(=O)sc2ccccc21)C(=O)c1ccccc1`: the TGI in [1], in test [2], in [3], in test [4], in test [5] and in test [6] was > 100 µM each time. The TGI in test [7], in test [8], in [9], in test [11], in test [12] and in test [13] was > 100 µM throughout. Further, the TGI in [14], in test [15], in test [16], in test [17], in test [18] and in [19] was > 100 µM each time.
Regarding `O=C(Cn1c(C(=O)/C=C/c2ccc(Cl)c(Cl)c2)nc2ccccc21)c1ccccc1`, the TGI in [1] was 33.3 µM; in test [2] it was > 100 µM; in [3], > 100 µM; in [4] it was 48.2 µM; in test [5], 86.2 µM; in [6] it was 82.2 µM. For the same compound, the TGI in test [7] is 59.8 µM; in test [8], 35.1 µM; in [9], 36.2 µM; in test [10] it was 31.9 µM; in test [11], 42.4 µM; in test [12] it was > 100 µM. The TGI turned out to be 39.1 µM in test [13]; 79 µM in test [14]; 56.5 µM in test [16]; 67.4 µM in [17]; 80 µM in test [18]; 39.4 µM in test [19].
As for `COC(=O)/C=C1/OC(c2ccccc2)=C(Br)C1=O`, the TGI in test [1], in [2], in [3], in [4], in test [5] and in [6] was > 100 µM each time. The TGI in test [8] was > 100 µM; in test [9], > 100 µM; in test [10], > 100 µM; in test [11] it was > 100 µM; in [12], 36.7 µM; in test [13], 43.3 µM. In addition, the TGI in [16], in test [17], in test [18] and in [19] was > 100 µM in each case.
